Activity calls are given as the source filed them.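 Rule for the calls: active = compounds giving half or more protection of infected cells from virus-caused growth loss, again on retest; inactive = the rest.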 Where a SMILES comes first, the peptide text is derived from it. Bridges are numbered along the chain shown (N, C = ends). [ ]: non-standard residue; d: D form. Aib = CC(C)(N)C(=O)O; βAla = NCCC(=O)O
Tested on: CEM cells HIV-1 protection, formazan growth assay
Assay: NCI AIDS Antiviral Assay
Conditions: for IC50: measured here: growth of uninfected CEM cells
In short: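 Screen of anti-HIV-1 activity in human CEM cells using a formazan-based growth measurement at five drug concentrations. Hits with 50% or greater protection were repeated, and confirmation required reproducible complete protection.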

SMILES	EC50	IC50	outcome
C=C(C)COC(=O)C1C2CC(C3OC23)C1C(=O)OCC(=C)C (stereo not drawn)	> 200 µM	112 µM	
CN1CCCCCCCC(=O)C(OC(=O)c2ccc([N+](=O)[O-])cc2)CCCCCCC1 (stereo not drawn)	> 100 µM	72.4 µM	
COc1cc2c(o1)C(=O)N1CCc3c([nH]c4ccccc34)C21 (stereo not drawn)	> 115 µM	64.6 µM	
CN(C)c1ccc(/C=C2/SC(=S)NC2=O)cc1	> 38 µM	> 38 µM	
O=NN1CN2CN(C1)CN(N=O)C2	> 200 µM	30.9 µM	
CSc1c(C#N)c(=O)n(N)c2n[nH]c(C)c12	> 200 µM	> 200 µM	
O=C(NCCO)c1c(CO)n([O-])c2ccccc2[n+]1=O	> 646 µM	214 µM	
CCC12OCC(C)(C)N1OC(=O)N2c1ccccc1 (stereo not drawn)	> 200 µM	> 200 µM	
CNC(=O)c1n[nH]n(C2CCCCC2)c1=S			inactive
CC1=NN(c2ccccc2)C(=O)C1N=Nc1ccc(S(=O)(=O)Nc2ncccn2)cc1 (stereo not drawn)	> 200 µM	36.3 µM	
O=[N+]([O-])c1ccc2nc3ccscc-3c2c1	> 15.5 µM	2.88 µM	
O=S(=O)(O)c1cc(N=Nc2ccc(O)cc2)ccc1/C=C/c1ccc(N=Nc2ccc(O)cc2)cc1S(=O)(=O)O	> 50.1 µM	45.7 µM	
O=c1ccc2c(cc3ccc4cccc5ccc2c3c45)o1			inactive
N#CCCN(CCCN(C(=O)Nc1ccccc1)c1ccccc1)C(=O)Nc1ccccc1	> 200 µM	95.5 µM	
N#Cc1nsnc1-c1nc(-c2nsnc2C#N)nc(-c2nsnc2C#N)n1	> 200 µM	141 µM	
CCN(CC)C(C(=O)Nc1c(C)cccc1C)N(CC)CC	> 200 µM	> 200 µM	
CC(C)(C)O/N=C/c1cc(NC(=S)c2ccsc2)ccc1Cl	2.14 µM	9.55 µM	
CON(C)c1nc(Cl)nc(Cl)n1	> 200 µM	> 200 µM	

SMILES	EC50	IC50	outcome
C[Si](C)(C)/C=C/CCNC(C#N)c1ccccc1 (stereo not drawn)	> 20.4 µM	> 20.4 µM	
CC(=O)C(CCC(=O)O)(CCC(=O)O)C(C)C	> 1020 µM	> 1020 µM	
CN(C)c1ccc(/C=C2\Oc3cc(O)ccc3C2=O)cc1	> 200 µM	45.7 µM	
O=S1Cc2ccccc2CS1 (stereo not drawn)			inactive
Clc1nc2cc3c(cc2n2cccc12)oc1ccccc13	> 200 µM	> 200 µM	
CCOC(=O)N1C(=S)C(C(=O)OC)(C(=O)OC)N=C1C	> 200 µM	> 200 µM	
O=[N+]([O-])c1cccc(C=NC23CC4CC(CC(C4)C2)C3)c1	> 66.1 µM	> 66.1 µM	
O=[P+](O)c1cccnc1			inactive
NC(=S)C1=C(N)Oc2c(c(=O)oc3ccccc23)C1c1ccc(Br)cc1 (stereo not drawn)	> 200 µM	126 µM	
COc1ccc(OC)c(/C=C2\C=Cc3ccccc32)c1	> 38 µM	6.46 µM	
C=C=C(C)C(C(C)C)N1CCCC1 (stereo not drawn)	> 1230 µM	138 µM	
Cc1ccc2nc(-c3ccc(N=Nc4cc(S(=O)(=O)O)c5ccccc5c4O)cc3)sc2c1S(=O)(=O)O	> 50.1 µM	> 50.1 µM	
CCO/S(=N/S(=O)(=O)c1ccccc1)c1ccccc1[N+](=O)[O-] (stereo not drawn)	> 708 µM	182 µM	
CC1(C)NC(=O)C(NC(=O)C(N)CC(=O)O)CCCCNC(=O)CCNC1=O (stereo not drawn) (H-DK[Aib][βAla]; lactam 2-C; configuration not given here)	> 200 µM	> 200 µM	
C=CC(C)(C)C(=C)C(=O)Nc1ccccc1I	> 200 µM	> 200 µM	
COc1ccc(C2N(c3ccc(F)cc3)C(=O)N3C(c4ccc(OC)cc4)N(c4ccc(F)cc4)C(=O)N23)cc1 (stereo not drawn)	> 200 µM	> 200 µM	
COc1cccc(/C=C2/Sc3sc(C(C)=O)c(C)[n+]3C2=O)c1O	> 89.1 µM	34.7 µM	
O=C1OCC2OC(O)C(O)C(O)C2OC(=O)c2cc(O)c(O)c(O)c2-c2c(O)c(O)c3oc(=O)c4c(c(O)c(O)c5oc(=O)c2c3c54)-c2c1cc(O)c(O)c2O (stereo not drawn)	4.17 µM	14.8 µM	

Reference: PubChem BioAssay AID179 (DTP/NCI, 2004)
